This is an account of results in patent US4335249A, “Herbicidal diphenyl ethers, sulfides, sulfoxides and sulfones” (Rohm and Haas Company, priority 1976, dated 1982).

Common to all, as to format: in vivo
Assay [1] deals with cocklebur (Xanthium pensylvanicum). The experiment in a line: Preemergence herbicidal activity, cocklebur. Particulars: 2 lb/A; for pest or weed control at 2241.7 g/ha: Xanthium strumarium, pre-emergence, 336 h; for % control, Cocklebur: Pre. The protocol: (§1) Using the procedure described below, compounds of the invention are evaluated for control of several of the following plant species:
(§2) The following est procedure is employed. Seeds of selected crops and weeds are planted in soil in flats. For preemergence tests, the flats are treated with the test compound immediately after the planting. For postemergence tests, the seeds are allowed to germinate, and after two weeks the flats are treated with the test compound. The compound to be evaluated is dissolved in acetone, diluted with water, and sprayed over the flats using a carrier volume equivalent to 50 gallons per acre at the rate of application (pounds per acre, lb/A.) specified in the tables. About two weeks after the application of the test compound, the state of growth of the plants is observed and the phytotoxic effect of the compound is evaluated. Tables III and IV give the average percent control achieved by test compounds in terms of the percent of the plants which are killed by the compounds.

Assay [2] concerns marigold (Tagetes spp.). The experiment in a line: Preemergence herbicidal activity, marigold. The conditions noted are these: 2 lb/A; for pest or weed control at 2241.7 g/ha: pre-emergence, 336 h; for % control, Marigold: Pre. The protocol:
as §1, §2

The test system of assay [3] is morningglory (Ipomoca spp.). The experiment in a line: Preemergence herbicidal activity, morningglory. The conditions noted are these: 2 lb/A; for pest or weed control at 2241.7 g/ha: Ipomoea, pre-emergence, 336 h; for % control, Morningglory: Pre. Here is the method: as §1, §2
Assay [4] has as its system tomato (Lycopersicon esculentum). The experiment in a line: Preemergence herbicidal activity, tomato. The conditions noted are these: Pre, 2 lb/A; for pest or weed control at 2241.7 g/ha: Solanum lycopersicum, pre-emergence, 336 h. The protocol:
as §1, §2

Assay [5] concerns velvetleaf (Abutilon theophrasti). As to the kind of experiment: Preemergence herbicidal activity, velvetleaf. The conditions noted are these: Pre, 2 lb/A; for pest or weed control at 2241.7 g/ha: Abutilon theophrasti, pre-emergence, 336 h. The protocol: as §1, §2
Assay [6] deals with barnyardgrass (Echinochloa crusgalli). As to the kind of experiment: Preemergence herbicidal activity, barnyardgrass. The conditions noted are these: Pre, 2 lb/A; for pest or weed control at 2241.7 g/ha: Echinochloa crus-galli, pre-emergence, 336 h. Here is the method: as §1
(§3) The following est procedure is employed. Seeds of selected crops and weeds are planted in soil in flats. For preemergence tests, the flats are treated with the test compound immediately after the planting. For postemergence tests, the seeds are allowed to germinate, and after two weeks the flats are treated with the test compound. The compound to be evaluated is dissolved in acetone, diluted with water, and sprayed over the flats using a carrier volume equivalent to 50 gallons per acre at the rate of application (pounds per acre, lb/A.) specified in the tables.

The subject of assay [7] is downybrome (Bromus tectorum). As to the kind of experiment: Preemergence herbicidal activity, downybrome. The conditions noted are these: Pre, 2 lb/A; for pest or weed control at 2241.7 g/ha: Bromus tectorum, pre-emergence, 336 h. Here is the method:
as §1, §2

Assay [8] concerns foxtail (Setaria spp.). The experiment in a line: Preemergence herbicidal activity, foxtail. Particulars: Pre, 2 lb/A; for pest or weed control at 2241.7 g/ha: Setaria, pre-emergence, 336 h. Here is the method: as §1, §2
In assay [9] the test system is yellow nutsedge (Cyperus esculentus). As to the kind of experiment: Preemergence herbicidal activity, yellow nutsedge. Particulars: 2 lb/A; for pest or weed control at 2241.7 g/ha: Cyperus, pre-emergence, 336 h; for % control, Nutsedge: Pre. The protocol: as §1, §2
For assay [10], the system named is wild oats (Avena fatua). As to the kind of experiment: Preemergence herbicidal activity, wild oats. Particulars: Pre, 2 lb/A; for pest or weed control at 2241.7 g/ha: Avena fatua, pre-emergence, 336 h, read-out: % control, Wild oat. The protocol: as §1, §2
The subject of assay [11] is cocklebur (Xanthium pensylvanicum). As to the kind of experiment: Postemergence herbicidal activity, cocklebur. Particulars: 2 lb/A; for pest or weed control at 2241.7 g/ha: Xanthium strumarium, post-emergence, 336 h; for % control, Cocklebur: Post. Here is the method:
as §1, §2

For assay [12], the system named is marigold (Tagetes spp.). As to the kind of experiment: Postemergence herbicidal activity, marigold. Particulars: 2 lb/A; for pest or weed control at 2241.7 g/ha: post-emergence, 336 h; for % control, Marigold: Post. The protocol: as §1, §2
In assay [13] the test system is morningglory (Ipomoca spp.). As to the kind of experiment: Postemergence herbicidal activity, morningglory. The conditions noted are these: 2 lb/A; for pest or weed control at 2241.7 g/ha: Ipomoea, post-emergence, 336 h; for % control, Morningglory: Post. Here is the method: as §1, §2
In assay [14] the test system is tomato (Lycopersicon esculentum). As to the kind of experiment: Postemergence herbicidal activity, tomato. Particulars: Post, 2 lb/A; for pest or weed control at 2241.7 g/ha: Solanum lycopersicum, post-emergence, 336 h. The protocol:
as §1, §2

For assay [15], the system named is velvetleaf (Abutilon theophrasti). As to the kind of experiment: Postemergence herbicidal activity, velvetleaf. Particulars: 2 lb/A; for pest or weed control at 2241.7 g/ha: Abutilon theophrasti, post-emergence, 336 h; for % control, Velvetleaf: Post. Here is the method: as §1, §3
Assay [16] concerns barnyardgrass (Echinochloa crusgalli). As to the kind of experiment: Postemergence herbicidal activity, barnyardgrass. The conditions noted are these: Post, 2 lb/A; for pest or weed control at 2241.7 g/ha: Echinochloa crus-galli, post-emergence, 336 h. The protocol: as §1, §3
Assay [17] has as its system downybrome (Bromus tectorum). As to the kind of experiment: Postemergence herbicidal activity, downybrome. The conditions noted are these: Post, 2 lb/A; for pest or weed control at 2241.7 g/ha: Bromus tectorum, post-emergence, 336 h. The protocol:
as §1, §2

In assay [18] the test system is foxtail (Setaria spp.). The experiment in a line: Postemergence herbicidal activity, foxtail. Particulars: Post, 2 lb/A; for pest or weed control at 2241.7 g/ha: Setaria, post-emergence, 336 h. Here is the method:
as §1, §2

Assay [19] deals with yellow nutsedge (Cyperus esculentus). As to the kind of experiment: Postemergence herbicidal activity, yellow nutsedge. The conditions noted are these: 2 lb/A; for pest or weed control at 2241.7 g/ha: Cyperus, post-emergence, 336 h; for % control, Nutsedge: Post. The protocol:
as §1, §2

For assay [20], the system named is wild oats (Avena fatua). As to the kind of experiment: Postemergence herbicidal activity, wild oats. Particulars: Post, 2 lb/A; for pest or weed control at 2241.7 g/ha: Avena fatua, post-emergence, 336 h, read-out: % control, Wild oat. The protocol:
as §1, §2

`CCOC(=O)C(C)Oc1ccc(Oc2ccc(C(F)(F)F)cc2Cl)cc1OC` (stereo not drawn) [Example 8, Ethyl 2-[4-(2-chloro-4-trifluoromethylphenoxy)-2-methoxyphenoxy] propionate]: the pest or weed control at 2241.7 g/ha (in assay [1]; in the assay with marigold (Tagetes spp.) [2]; in assay [3]; in [4]; in assay [5]; in assay [6]) was 0% in each case. Further, the pest or weed control at 2241.7 g/ha in assay [7] amounted to 0%; in the assay with foxtail (Setaria spp.) [8], 99%; in assay [9], 0%; with wild oats (Avena fatua) [10], 0%; in [11], 0%; with marigold (Tagetes spp.) [12], 0%. Further, the pest or weed control at 2241.7 g/ha (in assay [13]; in [14]; in [15]; in assay [16]; in assay [17]; with foxtail (Setaria spp.) [18]) was 0% in each case. Moreover, the pest or weed control at 2241.7 g/ha (in assay [19]; in the assay on wild oats (Avena fatua) [20]) was 0% in each case.
For `CCOC(=O)C(C)Oc1ccc(Oc2ccc(C(F)(F)F)cc2Cl)cc1[N+](=O)[O-]` (stereo not drawn) [Example 9], the pest or weed control at 2241.7 g/ha (in assay [1]; in the assay with marigold (Tagetes spp.) [2]; in assay [3]; in assay [4]; in [5]; in assay [6]) was 0% each time. Moreover, the pest or weed control at 2241.7 g/ha came to 0% in assay [7]; 0% with foxtail (Setaria spp.) [8]; 0% in [9]; 0% with wild oats (Avena fatua) [10]; 40% in [11]; 50% in the assay with marigold (Tagetes spp.) [12]. The pest or weed control at 2241.7 g/ha was 0% in assay [13]; 90% in assay [14]; 20% in assay [15]; 40% in assay [16]; 0% in assay [17]; 0% with foxtail (Setaria spp.) [18]. The pest or weed control at 2241.7 g/ha (in assay [19]; in the assay on wild oats (Avena fatua) [20]) was 0% each time.
Take `CCOC(=O)C(C)Oc1ccc(Oc2ccc(C(F)(F)F)cc2Cl)cc1C` (stereo not drawn) [Example 10]: the pest or weed control at 2241.7 g/ha (in assay [1]; with marigold (Tagetes spp.) [2]; in assay [3]; in [4]; in assay [5]; in assay [6]) was 0% each time. Further, the pest or weed control at 2241.7 g/ha in [7] came to 0%; in the assay on foxtail (Setaria spp.) [8], 0%; in assay [9], 0%; with wild oats (Avena fatua) [10] it was 0%; in assay [11], 40%; in the assay on marigold (Tagetes spp.) [12], 0%. Further, the pest or weed control at 2241.7 g/ha worked out at 80% in assay [13]; 30% in assay [14]; 40% in [15]; 0% in assay [16]; 0% in assay [17]; 0% in the assay on foxtail (Setaria spp.) [18]. Further, the pest or weed control at 2241.7 g/ha (in [19]; with wild oats (Avena fatua) [20]) was 0% in each case.
Take `CCOC(=O)COc1ccc(Oc2ccc(C(F)(F)F)cc2Cl)cc1` [Example 11]: the pest or weed control at 2241.7 g/ha (in assay [1]; in the assay on marigold (Tagetes spp.) [2]; in assay [3]; in [4]; in assay [5]; in [6]) was 0% throughout. Besides, the pest or weed control at 2241.7 g/ha in assay [7] was found to be 0%; in the assay with foxtail (Setaria spp.) [8], 30%; in [9], 0%; with wild oats (Avena fatua) [10], 0%; in [11], 50%; with marigold (Tagetes spp.) [12], 0%. Also, the pest or weed control at 2241.7 g/ha in assay [13] was found to be 30%; in assay [14], 0%; in assay [15], 20%; in assay [16] it was 20%; in assay [17] it was 0%; in the assay with foxtail (Setaria spp.) [18], 30%. Further, the pest or weed control at 2241.7 g/ha in [19] amounted to 0%; in the assay on wild oats (Avena fatua) [20] it was 40%.
In the case of `CC(Oc1ccc(Oc2ccc(C(F)(F)F)cc2Cl)cc1)C(=O)O` (stereo not drawn) [Example 12], the “% control, Cocklebur” value in [1] and in assay [11] was 0% each time. For the same compound, the “% control, Marigold” value with marigold (Tagetes spp.) [2] and with marigold (Tagetes spp.) [12] was 0% each time. The “% control, Morningglory” value in assay [3] and in assay [13] was 0% in each case. For the same compound, the “% control, Tomato” value in [4] and in assay [14] was 0% in each case. The “% control, Velvetleaf” value in assay [5] and in assay [15] was 0% throughout. Also, the “% control, Barnyardgrass” value in assay [6] and in assay [16] was 100% in each case. Also, the “% control, Downybrome” value in [7] worked out at 0%; in assay [17], 60%. Besides, the “% control, Foxtail” value in the assay with foxtail (Setaria spp.) [8] and in the assay on foxtail (Setaria spp.) [18] was 100% throughout. Also, the “% control, Nutsedge” value in [9] and in assay [19] was 0% in each case. Moreover, the results for the “% control, Wild oat” value in the assay on wild oats (Avena fatua) [10] and in the assay with wild oats (Avena fatua) [20] were 60% and 70%, respectively.
As to `CC(Oc1ccc(Oc2ccc(C(F)(F)F)cc2Cl)cc1)C(=O)O` (stereo not drawn) [Example 13], the “% control, Cocklebur” value in [1] and in [11] was 0% throughout. For the same compound, the “% control, Marigold” value with marigold (Tagetes spp.) [2] and in the assay on marigold (Tagetes spp.) [12] was 0% in each case. Moreover, the “% control, Morningglory” value in assay [3] and in [13] was 0% throughout. For the same compound, the “% control, Tomato” value in [4] and in assay [14] was 0% each time. In addition, the “% control, Velvetleaf” value in [5] and in assay [15] was 0% throughout. Further, the “% control, Barnyardgrass” value in assay [6] and in assay [16] was 100% each time. Further, the “% control, Downybrome” value in assay [7] amounted to 70%; in assay [17] it was 20%. Also, the results for the “% control, Foxtail” value in the assay with foxtail (Setaria spp.) [8] and with foxtail (Setaria spp.) [18] were 100% and 90%, respectively. Besides, the “% control, Nutsedge” value in [9] and in assay [19] was 0% throughout. In addition, the figures for the “% control, Wild oat” value in the assay on wild oats (Avena fatua) [10] and in the assay with wild oats (Avena fatua) [20] were 70% and 60%, respectively.
